From PubChem BioAssay (NCI)
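All cell lines were grown in 96-well plates and treated with compound for 48 hours. The concentration for full growth arrest is given as TGI.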

What was measured:
Assay in all cases: DTP human tumour cell line panel, 48 h
SN12C renal = test system: SN12C renal
NCI/ADR-RES ovarian = test system: NCI/ADR-RES ovarian
SF-295 CNS = test system: SF-295 CNS
COLO 205 colon = test system: COLO 205 colon
SK-MEL-28 melanoma = test system: SK-MEL-28 melanoma
SK-OV-3 ovarian = test system: SK-OV-3 ovarian
OVCAR-8 ovarian = test system: OVCAR-8 ovarian
HOP-62 NSCLC = test system: HOP-62 NSCLC
ACHN renal = test system: ACHN renal
HCT-15 colon = test system: HCT-15 colon
MDA-N = test system: MDA-N
KM12 colon = test system: KM12 colon
A549 NSCLC = test system: A549 NSCLC
HOP-92 NSCLC = test system: HOP-92 NSCLC
DU-145 prostate = test system: DU-145 prostate
SF-268 CNS = test system: SF-268 CNS
MDA-MB-231 breast = test system: MDA-MB-231 breast
786-0 renal = test system: 786-0 renal
MDA-MB-435 = test system: MDA-MB-435
HT29 colon = test system: HT29 colon
NCI-H23 lung = test system: NCI-H23 lung
LOX IMVI melanoma = test system: LOX IMVI melanoma
NCI-H522 lung = test system: NCI-H522 lung
A498 renal = test system: A498 renal
OVCAR-5 ovarian = test system: OVCAR-5 ovarian
HS 578T breast = test system: HS 578T breast
SK-MEL-5 melanoma = test system: SK-MEL-5 melanoma
NCI-H226 lung = test system: NCI-H226 lung
SNB-75 CNS = test system: SNB-75 CNS
NCI-H460 lung = test system: NCI-H460 lung
OVCAR-3 ovarian = test system: OVCAR-3 ovarian
HCC-2998 colon = test system: HCC-2998 colon
UO-31 renal = test system: UO-31 renal
CAKI-1 renal = test system: CAKI-1 renal
SK-MEL-2 melanoma = test system: SK-MEL-2 melanoma
UACC-62 melanoma = test system: UACC-62 melanoma
M14 melanoma = test system: M14 melanoma
MOLT-4 leukemia = test system: MOLT-4 leukemia
U251 CNS = test system: U251 CNS
SW-620 colon = test system: SW-620 colon
MALME-3M melanoma = test system: MALME-3M melanoma
RPMI-8226 leukemia = test system: RPMI-8226 leukemia
SNB-19 CNS = test system: SNB-19 CNS
CCRF-CEM leukemia = test system: CCRF-CEM leukemia
T-47D breast = test system: T-47D breast
PC-3 prostate = test system: PC-3 prostate
K-562 leukemia = test system: K-562 leukemia
BT-549 breast = test system: BT-549 breast
IGROV1 ovarian = test system: IGROV1 ovarian
OVCAR-4 ovarian = test system: OVCAR-4 ovarian
RXF 393 renal = test system: RXF 393 renal
UACC-257 melanoma = test system: UACC-257 melanoma
HCT-116 colon = test system: HCT-116 colon
TK-10 renal = test system: TK-10 renal
EKVX NSCLC = test system: EKVX NSCLC
MCF7 breast = test system: MCF7 breast
SF-539 CNS = test system: SF-539 CNS

CC(=O)Oc1cc2c(n(C)c1=O)-c1ccccc1C2
TGI (SN12C renal): > 100 µM
TGI (NCI/ADR-RES ovarian): 58.3 µM
TGI (SF-295 CNS): > 100 µM
TGI (COLO 205 colon): > 100 µM
TGI (SK-MEL-28 melanoma): > 100 µM
TGI (SK-OV-3 ovarian): > 100 µM
TGI (OVCAR-8 ovarian): > 100 µM
TGI (HOP-62 NSCLC): > 100 µM
TGI (ACHN renal): > 100 µM
TGI (HCT-15 colon): > 100 µM
TGI (MDA-N): > 100 µM
TGI (KM12 colon): > 100 µM
TGI (A549 NSCLC): > 100 µM
TGI (HOP-92 NSCLC): > 100 µM
TGI (DU-145 prostate): > 100 µM
TGI (SF-268 CNS): > 100 µM
TGI (MDA-MB-231 breast): > 100 µM
TGI (786-0 renal): > 100 µM
TGI (MDA-MB-435): > 100 µM
TGI (HT29 colon): > 100 µM
TGI (NCI-H23 lung): > 100 µM
TGI (LOX IMVI melanoma): > 100 µM
TGI (NCI-H522 lung): 30.7 µM
TGI (A498 renal): > 100 µM
TGI (OVCAR-5 ovarian): > 100 µM
TGI (HS 578T breast): > 100 µM
TGI (SK-MEL-5 melanoma): > 100 µM
TGI (NCI-H226 lung): > 100 µM
TGI (SNB-75 CNS): > 100 µM
TGI (NCI-H460 lung): > 100 µM
TGI (OVCAR-3 ovarian): > 100 µM
TGI (HCC-2998 colon): > 100 µM
TGI (UO-31 renal): > 100 µM
TGI (CAKI-1 renal): 78 µM
TGI (SK-MEL-2 melanoma): > 100 µM
TGI (UACC-62 melanoma): > 100 µM
TGI (M14 melanoma): > 100 µM
TGI (MOLT-4 leukemia): > 100 µM
TGI (U251 CNS): > 100 µM
TGI (SW-620 colon): 65.9 µM
TGI (MALME-3M melanoma): > 100 µM
TGI (RPMI-8226 leukemia): > 100 µM
TGI (SNB-19 CNS): > 100 µM
TGI (CCRF-CEM leukemia): > 100 µM
TGI (T-47D breast): > 100 µM
TGI (PC-3 prostate): > 100 µM
TGI (K-562 leukemia): > 100 µM
TGI (BT-549 breast): > 100 µM
TGI (IGROV1 ovarian): > 100 µM
TGI (OVCAR-4 ovarian): > 100 µM
TGI (RXF 393 renal): > 100 µM
TGI (UACC-257 melanoma): > 100 µM
TGI (HCT-116 colon): > 100 µM
TGI (TK-10 renal): > 100 µM

O=c1c(C=Nc2ccccc2Cl)c(O)n(-c2ccccc2)c(=O)n1-c1ccccc1
TGI (SN12C renal): > 100 µM
TGI (NCI/ADR-RES ovarian): > 100 µM
TGI (SF-295 CNS): > 100 µM
TGI (COLO 205 colon): > 100 µM
TGI (SK-OV-3 ovarian): > 100 µM
TGI (OVCAR-8 ovarian): > 100 µM
TGI (HOP-62 NSCLC): > 100 µM
TGI (ACHN renal): > 100 µM
TGI (HCT-15 colon): > 100 µM
TGI (MDA-N): > 100 µM
TGI (KM12 colon): > 100 µM
TGI (A549 NSCLC): > 100 µM
TGI (HOP-92 NSCLC): > 100 µM
TGI (SF-268 CNS): > 100 µM
TGI (MDA-MB-231 breast): > 100 µM
TGI (786-0 renal): > 100 µM
TGI (MDA-MB-435): > 100 µM
TGI (HT29 colon): > 100 µM
TGI (NCI-H23 lung): > 100 µM
TGI (LOX IMVI melanoma): > 100 µM
TGI (NCI-H522 lung): > 100 µM
TGI (A498 renal): > 100 µM
TGI (OVCAR-5 ovarian): > 100 µM
TGI (HS 578T breast): > 100 µM
TGI (EKVX NSCLC): > 100 µM
TGI (SK-MEL-5 melanoma): > 100 µM
TGI (NCI-H226 lung): > 100 µM
TGI (MCF7 breast): > 100 µM
TGI (NCI-H460 lung): > 100 µM
TGI (OVCAR-3 ovarian): > 100 µM
TGI (HCC-2998 colon): > 100 µM
TGI (UO-31 renal): > 100 µM
TGI (CAKI-1 renal): > 100 µM
TGI (SF-539 CNS): > 100 µM
TGI (SK-MEL-2 melanoma): > 100 µM
TGI (UACC-62 melanoma): > 100 µM
TGI (M14 melanoma): > 100 µM
TGI (MOLT-4 leukemia): > 100 µM
TGI (U251 CNS): > 100 µM
TGI (SW-620 colon): > 100 µM
TGI (MALME-3M melanoma): > 100 µM
TGI (RPMI-8226 leukemia): > 100 µM
TGI (SNB-19 CNS): > 100 µM
TGI (CCRF-CEM leukemia): > 100 µM
TGI (T-47D breast): > 100 µM
TGI (PC-3 prostate): > 100 µM
TGI (K-562 leukemia): > 100 µM
TGI (BT-549 breast): > 100 µM
TGI (IGROV1 ovarian): > 100 µM
TGI (OVCAR-4 ovarian): > 100 µM
TGI (RXF 393 renal): > 100 µM
TGI (UACC-257 melanoma): > 100 µM
TGI (HCT-116 colon): > 100 µM
TGI (TK-10 renal): > 100 µM
